{"source": "patent US10383831B2", "about": "“2,4,6-trialkoxystryl aryl sulfones, sulfonamides and carboxamides, and methods of preparation and use” (Temple University—Of The Commonwealth System Of Higher …, priority 2015, dated 2019)", "assay_type_in_all_cases": "cell-based", "key": {"RS4; 11": {"system": "RS4; 11", "assay": "Cytotoxicity assay (viable cell count, trypan blue), RS4; 11", "details": "Homo sapiens, 11, ALL-B-Cell Precursor, 96 hours continuous treatment", "method": "(§1) Cells of the cell lines listed in Table 18 (1×10^5) were plated into 6-well dishes. Twenty-four hours later, the compound of Example 1, i.e., (Z)-ethyl 3-((2-methoxy-5-(((E)-2,4,6-trimethoxystyrylsulfonyl)methyl) phenyl)amino)acrylate, or the compound of Comparative Example 1, i.e., sodium (E)-2-(5-((2,4,6-trimethoxystyrylsulfonyl)methyl)-2-methoxyphenylamino) acetate (rigosertib) was added at different concentrations over a 4 log dilution (0.001 to 10 μM). The total number of viable cells was determined after 96 hours of continuous treatment by staining with trypan blue and counting the number of non-staining cells (viable) remaining in each well using a hemacytometer. The percentage of viable cells remaining was calculated as follows: # viable cells (compound treated)/# viable cells (DMSO treated)*100. The GI50 (the concentration of drug resulting in 50% net loss of growth inhibition) was determined."}, "K562": {"system": "K562", "assay": "Cytotoxicity assay (viable cell count, trypan blue), K562", "details": "Homo sapiens; K562, Chronic Myelogenous Leukemia; 96 hours continuous treatment", "method": "as §1"}, "MOLT-4": {"system": "MOLT-4", "assay": "Cytotoxicity assay (viable cell count, trypan blue), MOLT-4", "details": "Homo sapiens; MOLT-4, T-Cell Lymphoma; 96 hours continuous treatment", "method": "as §1"}, "UM-UC-3": {"system": "UM-UC-3", "assay": "Cytotoxicity assay (viable cell count, trypan blue), UM-UC-3", "details": "Homo sapiens, UMUC3; UM-UC-3, Bladder; 96 hours continuous treatment", "method": "as §1"}, "2008": {"system": "2008", "assay": "Cytotoxicity assay (viable cell count, trypan blue), 2008", "details": "2008, Ovarian; 96 hours continuous treatment", "method": "as §1"}, "WM1617": {"system": "WM1617", "assay": "Cytotoxicity assay (viable cell count, trypan blue), WM1617", "details": "WM1617, Melanoma; 96 hours continuous treatment", "method": "as §1"}, "H1299": {"system": "H1299", "assay": "Cytotoxicity assay (viable cell count, trypan blue), H1299", "details": "Homo sapiens, NCI-H1299; H1299, Non-Small Cell Lung Carcinoma; 96 hours continuous treatment", "method": "as §1"}, "T-24": {"system": "T-24", "assay": "Cytotoxicity assay (viable cell count, trypan blue), T-24", "details": "Homo sapiens; T-24, Bladder; 96 hours continuous treatment", "method": "as §1"}, "Caov-3": {"system": "Caov-3", "assay": "Cytotoxicity assay (viable cell count, trypan blue), Caov-3", "details": "Homo sapiens; Caov-3, Ovarian; 96 hours continuous treatment", "method": "as §1"}, "PC-3": {"system": "PC-3", "assay": "Cytotoxicity assay (viable cell count, trypan blue), PC-3", "details": "Homo sapiens; PC-3, Prostate; 96 hours continuous treatment", "method": "as §1"}, "N417": {"system": "N417", "assay": "Cytotoxicity assay (viable cell count, trypan blue), N417", "details": "N417, Small Cell Lung Carcinoma; 96 hours continuous treatment", "method": "as §1"}, "Z1385": {"system": "Z1385", "assay": "Cytotoxicity assay (viable cell count, trypan blue), Z1385", "details": "Z1385, Mantle Cell Lymphoma; 96 hours continuous treatment", "method": "as §1"}, "DU145 (prostate cancer)": {"system": "DU145 (prostate cancer)", "assay": "Cytotoxicity assay, DU145 tumor cells", "details": "Homo sapiens, DU-145, 96 hours treatment", "method": "(§2) The effect of the compounds of the invention on tumor cells was determined by the assay described by Latham et al., Oncogene 12:827-837 (1996). Tumor cells K562 (chronic myelogenous leukaemia) or DU145 (prostate cancer) were plated in 12-well dishes at a cell density of 2.5×10^4 cells well. The plated cells were treated 24 hours later with a compound of the invention dissolved in DMSO at multiple concentrations ranging from 0.001 to 10 μM. The plates were examined 96 hours later under an inverted microscope, Olympus CK-2 using a 10× objective, and compound activity was noted by physical observation. When necessary, the total number of viable cells was determined by trypsinizing the wells and counting the number of viable cells, as determined by trypan blue exclusion, using a hemacytometer."}, "5367": {"system": "5367", "assay": "Cytotoxicity assay (viable cell count, trypan blue), 5367", "details": "5367, Bladder; 96 hours continuous treatment", "method": "as §1"}, "GRANTA-519": {"system": "GRANTA-519", "assay": "Cytotoxicity assay (viable cell count, trypan blue), GRANTA-519", "details": "Homo sapiens; GRANTA-519, Mantle Cell Lymphoma; 96 hours continuous treatment", "method": "as §1"}, "tumor cell lines": {"system": "tumor cell lines", "assay": "Cytotoxicity assay, comparison across the cell lines listed in Table 18", "details": "across the cell lines of Table 18; against some tumor types as much as 10-fold or even 100-fold", "method": "as §1"}, "DU145": {"system": "DU145", "assay": "Cytotoxicity assay (viable cell count, trypan blue), DU145", "details": "Homo sapiens, DU-145; DU145, Prostate; 96 hours continuous treatment", "method": "as §1"}, "MDA-MB-231": {"system": "MDA-MB-231", "assay": "Cytotoxicity assay (viable cell count, trypan blue), MDA-MB-231", "details": "Homo sapiens; MDA-MB-231, Breast; 96 hours continuous treatment", "method": "as §1"}, "DAUDI": {"system": "DAUDI", "assay": "Cytotoxicity assay (viable cell count, trypan blue), DAUDI", "details": "Homo sapiens, B-Cell Lymphoma, 96 hours continuous treatment", "method": "as §1"}, "CEM": {"system": "CEM", "assay": "Cytotoxicity assay (viable cell count, trypan blue), CEM", "details": "Homo sapiens, CCRF-CEM, T-Cell Lymphoma, 96 hours continuous treatment", "method": "as §1"}, "MIA-PaCa-2": {"system": "MIA-PaCa-2", "assay": "Cytotoxicity assay (viable cell count, trypan blue), MIA-PaCa-2", "details": "Homo sapiens; MIA-PaCa-2, Pancreatic; 96 hours continuous treatment", "method": "as §1"}, "HCT-15": {"system": "HCT-15", "assay": "Cytotoxicity assay (viable cell count, trypan blue), HCT-15", "details": "Homo sapiens; HCT-15, Colo-Rectal; 96 hours continuous treatment", "method": "as §1"}, "HCT-116": {"system": "HCT-116", "assay": "Cytotoxicity assay (viable cell count, trypan blue), HCT-116", "details": "Homo sapiens; HCT-116, Colo-Rectal; 96 hours continuous treatment", "method": "as §1"}, "HT-29": {"system": "HT-29", "assay": "Cytotoxicity assay (viable cell count, trypan blue), HT-29", "details": "Homo sapiens; HT-29, Colo-Rectal; 96 hours continuous treatment", "method": "as §1"}, "[1]": {"system": "K562 (chronic myelogenous leukaemia)", "assay": "Cytotoxicity assay, K562 tumor cells", "details": "Homo sapiens, 96 hours treatment", "method": "as §2"}, "A549": {"system": "A549", "assay": "Cytotoxicity assay (viable cell count, trypan blue), A549", "details": "Homo sapiens; A549, Non-Small Cell Lung Carcinoma; 96 hours continuous treatment", "method": "as §1"}}, "data": [{"smiles": "CCOC(=O)/C=C\\Nc1cc(CS(=O)(=O)/C=C/c2c(OC)cc(OC)cc2OC)ccc1OC", "note": "[Ex. 1, (Z)-ethyl 3-((2-methoxy-5-(((E)-2,4,6-trimethoxystyrylsulfonyl)methyl)phenyl)amino) acrylate]", "values": [{"measurement": "GI50", "setting": "RS4; 11", "value": 7.5, "unit": "nM"}, {"measurement": "GI50", "setting": "K562", "value": 3, "unit": "nM"}, {"measurement": "GI50", "setting": "MOLT-4", "value": 7.5, "unit": "nM"}, {"measurement": "GI50", "setting": "UM-UC-3", "value": 3, "unit": "nM"}, {"measurement": "GI50", "setting": "2008", "value": 6, "unit": "nM"}, {"measurement": "GI50", "setting": "WM1617", "value": 3, "unit": "nM"}, {"measurement": "GI50", "setting": "H1299", "value": 4, "unit": "nM"}, {"measurement": "GI50", "setting": "T-24", "value": 4, "unit": "nM"}, {"measurement": "GI50", "setting": "Caov-3", "value": 4, "unit": "nM"}, {"measurement": "GI50", "setting": "PC-3", "value": 7.5, "unit": "nM"}, {"measurement": "GI50", "setting": "N417", "value": 8, "unit": "nM"}, {"measurement": "GI50", "setting": "Z1385", "value": 6, "unit": "nM"}, {"measurement": "IC50", "setting": "DU145 (prostate cancer)", "value": 0.006, "unit": "µM"}, {"measurement": "GI50", "setting": "5367", "value": 3, "unit": "nM"}, {"measurement": "GI50", "setting": "GRANTA-519", "value": 6, "unit": "nM"}, {"measurement": "fold more active than the Comparative Example 1 compound", "setting": "tumor cell lines", "value": "at least 4 fold"}, {"measurement": "GI50", "setting": "DU145", "value": 10, "unit": "nM"}, {"measurement": "GI50", "setting": "MDA-MB-231", "value": 7.5, "unit": "nM"}, {"measurement": "GI50", "setting": "DAUDI", "value": 7.5, "unit": "nM"}, {"measurement": "GI50", "setting": "CEM", "value": 7.5, "unit": "nM"}, {"measurement": "GI50", "setting": "MIA-PaCa-2", "value": 5, "unit": "nM"}, {"measurement": "GI50", "setting": "HCT-15", "value": 7.5, "unit": "nM"}, {"measurement": "GI50", "setting": "HCT-116", "value": 7.5, "unit": "nM"}, {"measurement": "GI50", "setting": "HT-29", "value": 15, "unit": "nM"}, {"measurement": "IC50", "setting": "[1]", "value": 0.002, "unit": "µM"}, {"measurement": "GI50", "setting": "A549", "value": 7.5, "unit": "nM"}]}]}
